Source: ChEMBL document CHEMBL1201862, “PubChem BioAssay data set” (2004)
Activity calls are given as the source filed them.

Assays:
[1] = target: T1, Dual specificity protein phosphatase 3 (Homo sapiens, UniProt P51452); test: inhibition constants for human DUSP3 – biochemical, colorimetric, SAR follow-up (AID 2004)
[2] = target: T2, Intestinal-type alkaline phosphatase (Homo sapiens, UniProt P09923); test: Dose Response confirmation of uHTS hits from a small molecule inhibitors of human intestinal alkaline phosphatase via a luminescent assay. [Related pubchem assays (depositor defined):AID2544, AID2574]; format: functional
[3] = target: T2, Intestinal-type alkaline phosphatase; test: human intestinal alkaline phosphatase activators, dose response, biochemical, luminescence, uHTS hits (AID 463120); format: functional
[4] = target: NACHT, LRR and PYD domains-containing protein 3 (Homo sapiens, UniProt Q96P20); test: NALP3 inhibitors in yeast, dose response, luminescent (AID 488799); format: functional
[5] = target: Glucose-6-phosphate 1-dehydrogenase (Homo sapiens, UniProt P11413); test: inhibition of Homo sapiens G6PD, dose series – biochemical, fluorescence, selectivity assay for P. falciparum G6PD inhibitor project, dose response (AID 504792); format: functional
[6] = target: Eukaryotic translation initiation factor 4H (Homo sapiens, UniProt Q15056); test: eIF4H binding inhibition – biochemical, uHTS, fluorescence polarization, translation initiation inhibitor project, primary screen (AID 2012)
[7] = target: DNA dC->dU-editing enzyme APOBEC-3A (Homo sapiens, UniProt P31941); test: Dose Response confirmation of small molecule APOBEC3A DNA Deaminase Inhibitors via a fluorescence-based single-stranded DNA deaminase assay. [Related pubchem assays (depositor defined):AID493011, AID493024]; format: functional
[8] = target: DNA dC->dU-editing enzyme APOBEC-3G (Homo sapiens, UniProt Q9HC16); format: functional;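 also: Dose-response counterscreen measuring inhibition of APOBEC3G DNA deaminase activity, run while confirming APOBEC3A inhibitors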
[9] = target: Polyadenylate-binding protein 1 (Homo sapiens, UniProt P11940); test: blockers of PABP interaction with poly(A) – biochemical, fluorescence polarization, […] (AID 2014)
[10] = target: Cystic fibrosis transmembrane conductance regulator/Golgi-associated PDZ and coiled-coil motif-containing protein (Homo sapiens, UniProt P13569+Q9HD26); test: potency against CAL PDZ-peptide interaction – biochemical, fluorescence polarization, Cerulean-tagged CAL PDZ, cherry-picks, dose response (AID 504773)
[11] = cells; format: functional, cell-based
[12] = system: BJ; test: cells; format: functional, cell-based; details: Homo sapiens
[13] = luciferase reporter signal reduction – luminescence, H4-C neuroglioblastoma cells, dose response (AID 2458); format: functional, cell-based;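 also: H4 neuroglioblastoma cells stably carrying a luciferase reporter gene fusion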
[14] = Luminescence Cell-Based Dose Response HTS to Identify Inhibitors of 5'UTR Stem-Loop Driven Prion Protein mRNA Translation in H4 Neuroglioblastoma Cells. [Related pubchem assays: 1827 (Project Summary), 1813 (Primary HTS)]; format: functional
[15] = HEK-293T viability loss after treatment – luminescence, T-cell screen hits, cytotoxicity control for TCR NF-kB inhibitor project, dose response (AID 489026); format: functional, cell-based;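 also: cells exposed to compound about 14 hours before the viability readout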
[16] = luciferase reporter signal suppression in cells – H4 neuroglioma cells, luminescence, dose response (AID 1990); format: functional, cell-based
[17] = Luminescence-based dose response cell-based high throughput screening assay for cytotoxic compounds using the IEC-6 intestinal epithelial cell line. [Related pubchem assays: 1858 (Summary AID.), 1825 (Counterscreen.), 1907 (Confirmation screen.)]; format: functional
[18] = alpha-synuclein stem-loop translation blockers – luminescence, H4 neuroglioblastoma cells, dose confirmation, confirmation (AID 2454); format: functional, cell-based;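 also: H4 neuroglioblastoma cells carrying an alpha-synuclein 5'UTR luciferase reporter; potency for inhibition of the luciferase signal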
[19] = alpha-synuclein stem-loop luciferase translation blockers – H4 neuroglioma cells, luminescence, confirmation (AID 1988); format: functional, cell-based
[20] = target: Peroxisome proliferator-activated receptor gamma/Nuclear receptor corepressor 2 (Homo sapiens, UniProt P37231+Q9Y618); test: Counterscreen for NR2E3 inverse agonists: TR-FRET-based biochemical high throughput dose response assay to identify inverse agonists of the interaction between peroxisome proliferator-activated receptor gamma (PPARg) and nuclear receptor co-repressor 2 (NCOR2).; format: functional
[21] = target: T3, Tyrosine-protein phosphatase non-receptor type 7 (Homo sapiens, UniProt P35236); test: Dose Response confirmation of compounds that inhibit HePTP. [Related pubchem assays (depositor defined):AID1059, AID1661, AID2085]; format: functional
T3 sequence (P35236 whole entry): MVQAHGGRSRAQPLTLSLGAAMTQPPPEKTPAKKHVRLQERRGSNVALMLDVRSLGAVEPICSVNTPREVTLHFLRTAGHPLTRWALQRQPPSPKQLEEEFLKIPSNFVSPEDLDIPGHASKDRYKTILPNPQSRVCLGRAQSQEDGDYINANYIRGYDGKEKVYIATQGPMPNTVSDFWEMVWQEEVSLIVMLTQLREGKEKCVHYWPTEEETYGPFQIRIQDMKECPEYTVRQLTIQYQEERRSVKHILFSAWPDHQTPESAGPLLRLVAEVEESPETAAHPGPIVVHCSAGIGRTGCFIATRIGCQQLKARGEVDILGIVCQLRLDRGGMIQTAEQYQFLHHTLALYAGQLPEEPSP

[22] = target: T1, Dual specificity protein phosphatase 3; test: Dose Response Confirmation of compounds that inhibit VHR1 in Fluorescent Assay. [Related pubchem assays (depositor defined):AID1661, AID1878]; format: functional
[23] = target: Photoreceptor-specific nuclear receptor (Homo sapiens, UniProt Q9Y5X4); test: ligands suppressing NR2E3 nuclear receptor activity – biochemical, TR-FRET, dose response (AID 463256); format: functional
Photoreceptor-specific nuclear receptor, sequence (Q9Y5X4 whole entry): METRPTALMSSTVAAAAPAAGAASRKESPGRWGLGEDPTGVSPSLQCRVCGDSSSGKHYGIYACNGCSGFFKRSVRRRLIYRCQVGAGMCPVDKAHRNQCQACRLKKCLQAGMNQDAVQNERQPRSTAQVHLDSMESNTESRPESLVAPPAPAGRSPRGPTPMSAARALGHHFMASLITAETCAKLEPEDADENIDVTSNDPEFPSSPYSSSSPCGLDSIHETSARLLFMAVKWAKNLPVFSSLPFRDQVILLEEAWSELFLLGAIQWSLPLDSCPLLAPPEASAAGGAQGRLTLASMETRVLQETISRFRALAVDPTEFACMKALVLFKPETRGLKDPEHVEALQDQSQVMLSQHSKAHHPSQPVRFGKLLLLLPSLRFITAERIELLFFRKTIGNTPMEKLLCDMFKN

T1 sequence (P51452 whole entry): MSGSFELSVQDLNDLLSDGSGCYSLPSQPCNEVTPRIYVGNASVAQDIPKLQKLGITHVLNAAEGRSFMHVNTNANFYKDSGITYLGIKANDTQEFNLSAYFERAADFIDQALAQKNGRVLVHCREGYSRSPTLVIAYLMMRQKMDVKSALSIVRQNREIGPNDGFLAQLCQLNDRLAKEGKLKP
T2 sequence (P09923 whole entry): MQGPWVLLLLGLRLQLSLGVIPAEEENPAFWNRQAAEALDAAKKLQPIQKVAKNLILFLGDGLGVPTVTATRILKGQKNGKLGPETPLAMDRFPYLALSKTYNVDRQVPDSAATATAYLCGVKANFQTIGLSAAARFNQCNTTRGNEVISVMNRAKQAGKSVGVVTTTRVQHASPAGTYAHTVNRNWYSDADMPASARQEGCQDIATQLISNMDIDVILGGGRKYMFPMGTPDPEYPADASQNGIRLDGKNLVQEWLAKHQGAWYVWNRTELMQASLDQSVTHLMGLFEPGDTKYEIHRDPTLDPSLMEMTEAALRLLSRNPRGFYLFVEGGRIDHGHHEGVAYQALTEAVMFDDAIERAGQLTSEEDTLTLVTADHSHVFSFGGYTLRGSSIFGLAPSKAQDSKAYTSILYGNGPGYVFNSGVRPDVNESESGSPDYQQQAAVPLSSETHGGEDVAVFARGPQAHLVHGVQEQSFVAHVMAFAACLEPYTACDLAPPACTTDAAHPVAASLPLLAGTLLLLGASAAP
Glucose-6-phosphate 1-dehydrogenase, sequence (P11413 whole entry): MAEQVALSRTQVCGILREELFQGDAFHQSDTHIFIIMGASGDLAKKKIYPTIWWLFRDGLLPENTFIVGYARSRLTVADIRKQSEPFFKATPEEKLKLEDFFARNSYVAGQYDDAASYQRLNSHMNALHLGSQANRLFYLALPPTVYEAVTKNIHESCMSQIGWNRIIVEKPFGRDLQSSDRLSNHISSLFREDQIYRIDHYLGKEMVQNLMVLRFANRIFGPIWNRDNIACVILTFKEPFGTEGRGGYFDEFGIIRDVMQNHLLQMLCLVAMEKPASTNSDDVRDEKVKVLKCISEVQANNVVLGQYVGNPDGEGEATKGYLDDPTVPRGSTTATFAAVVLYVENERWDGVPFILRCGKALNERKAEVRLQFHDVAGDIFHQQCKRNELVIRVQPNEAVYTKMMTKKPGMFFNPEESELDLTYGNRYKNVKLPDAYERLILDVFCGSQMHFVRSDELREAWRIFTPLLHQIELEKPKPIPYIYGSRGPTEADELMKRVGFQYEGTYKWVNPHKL
DNA dC->dU-editing enzyme APOBEC-3G, sequence (Q9HC16 whole entry): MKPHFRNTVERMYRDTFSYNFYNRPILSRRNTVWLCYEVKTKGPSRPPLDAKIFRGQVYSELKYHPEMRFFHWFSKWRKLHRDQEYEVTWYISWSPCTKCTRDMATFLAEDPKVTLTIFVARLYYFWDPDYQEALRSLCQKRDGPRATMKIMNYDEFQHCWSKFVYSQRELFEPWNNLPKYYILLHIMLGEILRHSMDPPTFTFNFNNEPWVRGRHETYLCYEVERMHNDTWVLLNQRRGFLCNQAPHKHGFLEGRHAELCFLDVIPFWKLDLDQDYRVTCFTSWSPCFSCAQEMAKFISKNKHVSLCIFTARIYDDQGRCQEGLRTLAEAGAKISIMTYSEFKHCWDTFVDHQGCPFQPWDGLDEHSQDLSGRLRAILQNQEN
Polyadenylate-binding protein 1, sequence (P11940 whole entry): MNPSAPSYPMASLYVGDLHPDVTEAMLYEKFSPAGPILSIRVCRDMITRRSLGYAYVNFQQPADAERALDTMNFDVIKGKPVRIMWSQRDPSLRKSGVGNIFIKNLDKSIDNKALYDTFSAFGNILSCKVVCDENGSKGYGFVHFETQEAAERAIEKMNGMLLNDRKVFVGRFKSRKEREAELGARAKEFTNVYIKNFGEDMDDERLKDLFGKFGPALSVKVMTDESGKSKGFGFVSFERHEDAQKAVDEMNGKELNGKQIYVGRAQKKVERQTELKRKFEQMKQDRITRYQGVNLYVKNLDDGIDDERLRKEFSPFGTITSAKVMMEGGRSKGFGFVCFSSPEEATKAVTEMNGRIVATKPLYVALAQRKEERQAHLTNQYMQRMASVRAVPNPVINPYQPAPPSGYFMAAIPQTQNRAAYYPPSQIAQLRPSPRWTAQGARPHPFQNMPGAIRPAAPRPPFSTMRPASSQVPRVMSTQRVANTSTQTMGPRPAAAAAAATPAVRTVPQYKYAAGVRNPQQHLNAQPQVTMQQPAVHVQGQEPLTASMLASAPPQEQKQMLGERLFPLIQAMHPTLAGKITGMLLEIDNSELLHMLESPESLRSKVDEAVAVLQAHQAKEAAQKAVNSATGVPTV
DNA dC->dU-editing enzyme APOBEC-3A, sequence (P31941 whole entry): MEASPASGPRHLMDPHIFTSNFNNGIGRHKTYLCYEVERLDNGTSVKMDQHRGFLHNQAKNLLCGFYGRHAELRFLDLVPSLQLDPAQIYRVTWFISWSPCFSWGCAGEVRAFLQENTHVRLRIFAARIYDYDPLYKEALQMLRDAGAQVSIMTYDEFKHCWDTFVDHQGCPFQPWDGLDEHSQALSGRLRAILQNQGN
Cystic fibrosis transmembrane conductance regulator/Golgi-associated PDZ and coiled-coil motif-containing protein, sequence (P13569 whole entry, other chains not shown): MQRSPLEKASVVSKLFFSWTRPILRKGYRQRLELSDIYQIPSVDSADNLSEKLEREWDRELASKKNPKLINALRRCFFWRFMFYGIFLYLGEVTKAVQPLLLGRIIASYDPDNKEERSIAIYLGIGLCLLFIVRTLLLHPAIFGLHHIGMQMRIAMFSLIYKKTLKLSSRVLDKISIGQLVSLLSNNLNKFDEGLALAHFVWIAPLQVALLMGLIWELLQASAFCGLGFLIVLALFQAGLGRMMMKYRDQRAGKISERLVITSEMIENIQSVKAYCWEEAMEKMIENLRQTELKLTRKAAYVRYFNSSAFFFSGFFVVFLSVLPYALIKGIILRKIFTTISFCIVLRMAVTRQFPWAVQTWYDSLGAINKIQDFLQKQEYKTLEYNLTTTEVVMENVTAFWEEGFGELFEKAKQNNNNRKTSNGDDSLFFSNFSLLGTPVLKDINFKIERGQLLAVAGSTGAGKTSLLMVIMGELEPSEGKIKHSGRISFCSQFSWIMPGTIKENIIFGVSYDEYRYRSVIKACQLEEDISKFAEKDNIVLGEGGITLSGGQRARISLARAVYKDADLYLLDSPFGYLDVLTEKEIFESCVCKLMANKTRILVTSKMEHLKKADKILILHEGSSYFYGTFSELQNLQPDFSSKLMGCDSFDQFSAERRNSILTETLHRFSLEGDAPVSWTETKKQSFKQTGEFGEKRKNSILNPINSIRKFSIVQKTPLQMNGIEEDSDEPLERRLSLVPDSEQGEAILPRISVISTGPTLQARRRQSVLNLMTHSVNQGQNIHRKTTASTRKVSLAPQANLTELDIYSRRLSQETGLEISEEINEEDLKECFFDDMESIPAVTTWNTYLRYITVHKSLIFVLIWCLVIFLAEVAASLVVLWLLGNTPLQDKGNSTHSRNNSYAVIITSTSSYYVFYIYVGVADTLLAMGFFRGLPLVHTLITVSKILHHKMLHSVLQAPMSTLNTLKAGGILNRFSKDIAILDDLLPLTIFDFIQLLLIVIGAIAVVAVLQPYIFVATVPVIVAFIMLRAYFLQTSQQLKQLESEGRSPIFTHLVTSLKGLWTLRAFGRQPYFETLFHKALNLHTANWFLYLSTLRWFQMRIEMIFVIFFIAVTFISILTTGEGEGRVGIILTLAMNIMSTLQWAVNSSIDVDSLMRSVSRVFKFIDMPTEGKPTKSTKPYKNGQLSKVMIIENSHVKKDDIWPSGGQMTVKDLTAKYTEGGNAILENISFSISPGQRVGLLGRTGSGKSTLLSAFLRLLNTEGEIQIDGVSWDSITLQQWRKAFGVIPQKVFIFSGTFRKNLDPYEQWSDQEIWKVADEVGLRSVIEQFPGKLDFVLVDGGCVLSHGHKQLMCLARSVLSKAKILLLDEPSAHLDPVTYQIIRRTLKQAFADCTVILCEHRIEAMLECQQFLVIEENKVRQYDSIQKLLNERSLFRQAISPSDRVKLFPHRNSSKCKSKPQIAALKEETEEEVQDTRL

With `CCN(CC)c1ccc(Nc2nc(-c3sc(N)nc3C)cs2)cc1` the Ki [1] was 30.2 µM (inactive).
With `O=S(=O)(c1ccccc1)N1CCCC1c1cccs1` (stereo not drawn) the IC50 [2] was > 100 µM (inactive) and the EC50 [3] was > 100 µM (inactive).
For `Cc1nc2ccc(Nc3nc4cc(S(=O)(=O)N5CCOCC5)ccc4o3)cc2s1`, the IC50 [4] was > 100 µM (inactive) and the IC50 [5] was > 80 µM (inactive).
With `Cn1ccccc1=Nc1cccc[n+]1C` the IC50 [6] was > 100 µM (inactive), the IC50 [7] was 2.8 µM (active) and the IC50 [8] was 4.12 µM (active). For the same compound, the IC50 [9] was 6.54 µM (active).
For `O=C1CC(c2ccccc2)=C(c2ccccc2)C1`, the AC50 [10] was 18.7 µM (active).
With `CSc1nc(N(C)NC(=O)c2cccc(C)c2)c2ccccc2n1` the EC50 [11] was 0.104 µM (active), the EC50 [12] was 0.272 µM (active) and the EC50 [13] was 0.087 µM (active). For the same compound, the EC50 [14] was < 0.1 µM (active), the IC50 [15] was > 80 µM (inactive) and the EC50 [16] was < 0.1 µM (active). The IC50 [17] was 0.14 µM (active), the EC50 [18] was 0.073 µM (active) and the EC50 [19] was < 0.1 µM (active).
With `O=C(Nc1ccc2oc(-c3cccnc3)nc2c1)c1ccc2c(c1)OCCO2` the IC50 [20] was 1.46 µM (active), the IC50 [21] was 5.36 µM (active) and the IC50 [22] was 8.43 µM (active). For the same compound, the IC50 [23] was 1.61 µM (active).
